Test results reported in US20090285888A1, “DERIVATIVES OF DIHYDROXYPHENYLALANINE” (priority 2006, published 2009).

Legend:
[1] = test system: brain (striatum) of the rat; test: Concentration of dopamine, its metabolites, 5-HT and 5-HIAA in the striatum of benserazide-pretreated rats; format: in vivo; conditions: for 3-MT concentration in striatum (MV) / 5-HIAA concentration in striatum (MV) / 5-HT concentration in striatum (MV) / Dopac concentration in striatum (MV) / Dopamine concentration in striatum (MV) / HVA concentration in striatum (MV): 30 min after benserazide, tissue 90 min later
Method: (§1) The rats were pretreated with benserazide, an inhibitor of the aromatic amino acid decarboxylase, in order to reduce the degradation of the test compounds in the blood and to thus provide sufficient concentration of dopamine and α-lipoic acid in the brain. After 30 minutes, L-DOPA (standard therapy for Parkinson's disease) or compound 1, compound 2, compound 3 in doses equivalent to L-DOPA were injected into the peritoneum (intraperitoneal, ip). After a further 90 minutes, blood and brain tissue (striatum) were extracted. A lower dose (25 mg/kg body weight) and a higher dose (50 mg/kg body weight) of L-DOPA were selected.

blood plasma of rats = test: Concentration of dopamine, its metabolites, 5-HT and 5-HIAA in the blood plasma of benserazide-pretreated rats; format: in vivo, rat; conditions: for 3-MT concentration in blood plasma (MV) / 5-HIAA concentration in blood plasma (MV) / 5-HT concentration in blood plasma (MV) / Dopac concentration in blood plasma (MV) / Dopamine concentration in blood plasma (MV) / HVA concentration in blood plasma (MV): 30 min after benserazide, blood 90 min later; for Formation of dopamine in the blood plasma (in words): low and higher doses
Method: as §1

[2] = test system: nucleus accumbens of a freely moving rat; test: In vivo microdialysis of dopamine release in the nucleus accumbens of the freely moving rat
Method: The arrow indicates the moment of injection (ip: intraperitoneal) of L-DOPA (25 mg/kg body weight) 30 minutes after the administration of benserazide (10 mg/kg body weight, ip).
The arrow indicates the moment of injection (ip: intraperitoneal) of L-DOPA (50 mg/kg body weight) 30 minutes after the administration of benserazide (10 mg/kg body weight, ip, in 0.9% NaCl).
The arrow indicates the moment of injection (ip: intraperitoneal) of diacetyl-DOPA-ethylene glycol α-lipoic acid (equimolar dose to 25 mg/kg body weight L-DOPA) 30 minutes after the administration of benserazide (10 mg/kg body weight, ip in 0.9% NaCl).
The arrow indicates the moment of injection (ip: intraperitoneal) of diacetyl-DOPA-ethylene glycol α-lipoic acid (equimolar dose to 50 mg/kg body weight L-DOPA) 30 minutes after the administration of benserazide (10 mg/kg body weight, ip).
Furthermore, by the method of in vivo micro dialysis of the conscious and freely moving rat, experiments were carried out to test whether the production and release of dopamine in the nucleus accumbens, a part of the brain with dense innervation of dopamine-containing nerve cells, is increased upon administration of L-DOPA or compound 1. The advantage of said method consists in the fact that the time-course of the release of the messenger dopamine from the active nerve cells can be observed in the conscious and freely moving rat. […] Said strong increase and the high concentrations are not desired since several degradation products of dopamine and the oxygen radicals formed during the degradation of dopamine have damaging effects on nerve cells.

[3] = 25 mg/kg L-DOPA or L-DOPA eq. ip
[4] = 50 mg/kg L-DOPA or L-DOPA eq. ip
[5] = higher doses (50 mg/kg L-DOPA eq.)
[6] = low doses (25 mg/kg L-DOPA eq.)

NC(Cc1ccc(O)c(O)c1)C(=O)O [L-DOPA, 2-amino-3-(3,4-dihydroxyphenyl)-propionic acid, reference compound]
3-MT concentration in striatum (MV) [1, 3]: 312 pg per mg striatum | 5-HIAA concentration in striatum (MV) [1, 3]: 711 pg per mg striatum | 5-HT concentration in striatum (MV) [1, 3]: 365 pg per mg striatum | Dopac concentration in striatum (MV) [1, 3]: 3017 pg per mg striatum | Dopamine concentration in striatum (MV) [1, 3]: 10108 pg per mg striatum | HVA concentration in striatum (MV) [1, 3]: 1752 pg per mg striatum | 3-MT concentration in striatum (MV) [1, 4]: 259 pg per mg striatum | 5-HIAA concentration in striatum (MV) [1, 4]: 593 pg per mg striatum | 5-HT concentration in striatum (MV) [1, 4]: 366 pg per mg striatum | Dopac concentration in striatum (MV) [1, 4]: 9159 pg per mg striatum | Dopamine concentration in striatum (MV) [1, 4]: 11844 pg per mg striatum | HVA concentration in striatum (MV) [1, 4]: 4550 pg per mg striatum | Effect on the concentrations of dopamine in striatum (in words) [1, 5]: led to an increase | Effect on the metabolites DOPAC and HVA in striatum (in words) [1, 5]: increased | Effect on the concentrations of dopamine in striatum (in words) [1, 6]: do not lead to an increase | Effect on the metabolites DOPAC and HVA in striatum (in words) [1, 6]: increased | 3-MT concentration in blood plasma (MV) (blood plasma of rats; [3]): 11897 pg per ml plasma | 5-HIAA concentration in blood plasma (MV) (blood plasma of rats; [3]): 18687 pg per ml plasma | 5-HT concentration in blood plasma (MV) (blood plasma of rats; [3]): 3089 pg per ml plasma | Dopac concentration in blood plasma (MV) (blood plasma of rats; [3]): 20833 pg per ml plasma | Dopamine concentration in blood plasma (MV) (blood plasma of rats; [3]): 20437 pg per ml plasma | HVA concentration in blood plasma (MV) (blood plasma of rats; [3]): 9592 pg per ml plasma | 3-MT concentration in blood plasma (MV) (blood plasma of rats; [4]): 14711 pg per ml plasma | 5-HIAA concentration in blood plasma (MV) (blood plasma of rats; [4]): 11426 pg per ml plasma | 5-HT concentration in blood plasma (MV) (blood plasma of rats; [4]): 15108 pg per ml plasma | Dopac concentration in blood plasma (MV) (blood plasma of rats; [4]): 38697 pg per ml plasma | Dopamine concentration in blood plasma (MV) (blood plasma of rats; [4]): 31519 pg per ml plasma | HVA concentration in blood plasma (MV) (blood plasma of rats; [4]): 69329 pg per ml plasma | Formation of dopamine in the blood plasma (in words) (blood plasma of rats): dopamine is formed | Dose dependence of dopamine release in nucleus accumbens (in words) ([2]; 25 and 50 mg/kg L-DOPA or equimolar doses, FIGS. 1-4): released in a dose-dependent manner | Time-course of dopamine concentration in nucleus accumbens microdialysate (in words) ([2]; ip, 30 min after benserazide, L-DOPA: higher dose (FIG. 1), compound 1: FIGS. 3 and 4): strongly increases

CC(=O)Oc1ccc(CC(NC(=O)CCCCC2CCSS2)C(=O)O)cc1OC(C)=O [compound 2, O,O′-diacetyl-L-DOPA-(R,S)-lipoic acid amide]
3-MT concentration in striatum (MV) [1, 3]: 267 pg per mg striatum | 5-HIAA concentration in striatum (MV) [1, 3]: 780 pg per mg striatum | 5-HT concentration in striatum (MV) [1, 3]: 438 pg per mg striatum | Dopac concentration in striatum (MV) [1, 3]: 6127 pg per mg striatum | Dopamine concentration in striatum (MV) [1, 3]: 10512 pg per mg striatum | HVA concentration in striatum (MV) [1, 3]: 1577 pg per mg striatum | 3-MT concentration in striatum (MV) [1, 4]: 176 pg per mg striatum | 5-HIAA concentration in striatum (MV) [1, 4]: 782 pg per mg striatum | 5-HT concentration in striatum (MV) [1, 4]: 448 pg per mg striatum | Dopac concentration in striatum (MV) [1, 4]: 5697 pg per mg striatum | Dopamine concentration in striatum (MV) [1, 4]: 11485 pg per mg striatum | HVA concentration in striatum (MV) [1, 4]: 1742 pg per mg striatum | Effect on the concentrations of dopamine in striatum (in words) [1, 5]: led to an increase | Effect on the metabolites DOPAC and HVA in striatum (in words) [1, 5]: increased | Effect on the concentrations of dopamine in striatum (in words) [1, 6]: do not lead to an increase | Effect on the metabolites DOPAC and HVA in striatum (in words) [1, 6]: increased | Effect on the concentration of 5-HT in striatum (in words) ([1]; rat, in vivo): increased the concentration of 5-HT | 3-MT concentration in blood plasma (MV) (blood plasma of rats; [3]): 11480 pg per ml plasma | 5-HIAA concentration in blood plasma (MV) (blood plasma of rats; [3]): 8374 pg per ml plasma | 5-HT concentration in blood plasma (MV) (blood plasma of rats; [3]): 7966 pg per ml plasma | Dopac concentration in blood plasma (MV) (blood plasma of rats; [3]): 52963 pg per ml plasma | Dopamine concentration in blood plasma (MV) (blood plasma of rats; [3]): 23006 pg per ml plasma | HVA concentration in blood plasma (MV) (blood plasma of rats; [3]): 44304 pg per ml plasma | 3-MT concentration in blood plasma (MV) (blood plasma of rats; [4]): 6121 pg per ml plasma | 5-HIAA concentration in blood plasma (MV) (blood plasma of rats; [4]): 12656 pg per ml plasma | 5-HT concentration in blood plasma (MV) (blood plasma of rats; [4]): 7494 pg per ml plasma | Dopac concentration in blood plasma (MV) (blood plasma of rats; [4]): 57729 pg per ml plasma | Dopamine concentration in blood plasma (MV) (blood plasma of rats; [4]): 21919 pg per ml plasma | HVA concentration in blood plasma (MV) (blood plasma of rats; [4]): 42184 pg per ml plasma | Formation of dopamine in the blood plasma (in words) (blood plasma of rats): Dopamine is also formed

O=C(CCCCC1CCSS1)NC(Cc1ccc(O)c(O)c1)C(=O)O [compound 3, L-DOPA-(D,L)-lipoic acid amide]
3-MT concentration in striatum (MV) [1, 3]: 292 pg per mg striatum | 5-HIAA concentration in striatum (MV) [1, 3]: 620 pg per mg striatum | 5-HT concentration in striatum (MV) [1, 3]: 340 pg per mg striatum | Dopac concentration in striatum (MV) [1, 3]: 1508 pg per mg striatum | Dopamine concentration in striatum (MV) [1, 3]: 10539 pg per mg striatum | HVA concentration in striatum (MV) [1, 3]: 1042 pg per mg striatum | 3-MT concentration in striatum (MV) [1, 4]: 237 pg per mg striatum | 5-HIAA concentration in striatum (MV) [1, 4]: 490 pg per mg striatum | 5-HT concentration in striatum (MV) [1, 4]: 278 pg per mg striatum | Dopac concentration in striatum (MV) [1, 4]: 1788 pg per mg striatum | Dopamine concentration in striatum (MV) [1, 4]: 11488 pg per mg striatum | HVA concentration in striatum (MV) [1, 4]: 1244 pg per mg striatum | Effect on the concentrations of dopamine in striatum (in words) [1, 5]: led to an increase | Effect on the metabolites DOPAC and HVA in striatum (in words) [1, 5]: increased | Effect on the concentrations of dopamine in striatum (in words) [1, 6]: do not lead to an increase | Effect on the metabolites DOPAC and HVA in striatum (in words) [1, 6]: only HVA
